In patent US20110312945A1, “CRTH2 MODULATORS” (priority 2008, published 2011) one finds IC50 data, which are given here for twelve compounds.

Assay [1] concerns the target T1, CRTH2 (Homo sapiens, UniProt Q9Y5Y4).
T1 construct: polymorphonuclear cells (0.5 ml; 10^6/ml cells) in PBS containing 0.9 mM CaCl2 and 0.5 mM MgCl2; endogenous in cells; host or cells: polymorphonuclear cells (eosinophils gated by flow cytometry)
T1 sequence (Q9Y5Y4 1-395): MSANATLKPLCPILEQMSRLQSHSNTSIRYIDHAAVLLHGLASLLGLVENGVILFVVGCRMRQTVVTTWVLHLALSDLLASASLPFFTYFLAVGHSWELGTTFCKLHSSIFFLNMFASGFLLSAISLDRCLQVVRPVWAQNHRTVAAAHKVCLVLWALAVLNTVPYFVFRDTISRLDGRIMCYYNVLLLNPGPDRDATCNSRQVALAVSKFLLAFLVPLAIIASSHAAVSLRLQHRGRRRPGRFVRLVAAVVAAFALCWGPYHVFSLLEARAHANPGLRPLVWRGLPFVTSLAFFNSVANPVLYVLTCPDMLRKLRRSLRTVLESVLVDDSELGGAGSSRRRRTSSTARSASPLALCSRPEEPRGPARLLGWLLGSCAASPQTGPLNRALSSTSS
The assay can be described thus: Human Whole Blood CD11b Antagonist Assay. It is filed as cell-based. As to conditions: eosinophil CD11b expression, challenge with 15R-Methyl-PGD2 (10 nM). As for the experimental part: Human Whole Blood CD11b Antagonist Assay (modified from Nicholson, et al. Pulmonary Pharmacology and Therapeutics: 20 (2007); 52-59). The potential CRTH2 antagonist activity of certain compounds was tested in human whole blood using an assay that tests the ability of the compounds to block the CD11b expression in eosinophils by 15-R-methyl-PGD2. A CRTH2 antagonist should block CD11b expression by subsequently added 15-Methyl-PGD2. Human whole blood (200 μL) was incubated at 37° C. for 10 minutes in the presence of various concentrations of test compounds before being challenged with the agonist 15R-Methyl-PGD2 (10 nM). Reactions were terminated by the addition of ice-cold PBS+0.5% BSA+2 mMEDTA (1 mL) and centrifugation (300×g for 5 minutes at 4° C.) Cells were then incubated at 4° C. for 10 min in the presence of human IgG. Cells were then incubated for 30-45 min with a mixture of PE-Cy5-labeled mouse anti-human CD16 (10 ul; BD Biosciences) and FITC-labeled mouse anti-human CD11b (10 μL; Beckman Coulter.) After rinsing (1 mL ice-cold PBS+0.5% BSA+2 mMEDTA), red blood cells were lysed by the addition of 1 mL ice-cold H2O to the cell pellet for 30 sec-1 min immediately followed by the addition of 3.5% NaCl (300 μL.) Cells were then rinsed (2x−1 ml ice cold PBS+0.5% BSA+2 mMEDTA) and fixed in PBS containing 1% formaldehyde. The distribution of fluorescence intensities was measured by flow cytometry. Eosinophils were gated out on the basis of their granularity (high side scatter) and absence of CD-16. CD11b was then measured on this eosinophil population on the basis of fluorescence due to FITC.

Assay [2] deals with T1, CRTH2. Description: DPBS CD11b Antagonist Assay. It is filed as cell-based. The note with it: polymorphonuclear cells in PBS, eosinophil CD11b expression, challenge with 15R-Methyl-PGD2 (10 nM). The procedure:
DPBS CD11b Antagonist Assay. The potential CRTH2 antagonist activity of certain compounds was tested using a CD11b expression assay using essentially the method described by Monneret et al. (J Pharmacol Exp Ther 304:349-55, 2003). Briefly, polymorphonuclear cells (0.5 ml; 10^6/ml cells) in PBS containing 0.9 mM CaCl2 and 0.5 mM MgCl2) were preincubated with various concentrations of test compounds at room temperature for 10 minutes before they were challenged with the agonist 15R-Methyl-PGD2 (10 nM). The incubations were terminated by the addition of ice-cold FACSFlow (BD Biosciences; Cat# 342003) and centrifugation (400 g for 5 minutes at 4° C.). The cells were then incubated for 30 minutes at 4° C. with a mixture of PE-labeled mouse anti-human VLA-4 (5 μl; BD Biosciences) and FITC-labeled mouse anti-human CD11b (10 μl; Beckman Coulter). The cells were then incubated with Optilyse C (0.25 ml; Beckman Coulter) for 15 minutes, centrifuged, and then fixed in PBS (0.4 ml; calcium and magnesium free) containing 1% formaldehyde. The distribution of fluorescence intensities among 60,000 cells was measured by flow cytometry. Eosinophils were gated out on the basis of their granularity (high side scatter) and labeling with VLA-4 (PE fluorescence). CD11b was then measured in the eosinophil region on the basis of fluorescence due to FITC. All data were corrected for the value obtained for the corresponding isotope control antibody.

With `Cc1c(Sc2ccc(S(=O)(=O)N3CCOCC3)cc2)c2c(n1CC(=O)O)CC(C)(C)CC2=O` [Example I-41, 2-(2,6,6-trimethyl-3-(4-(morpholinosulfonyl)phenylthio)-4-oxo-4,5,6,7-tetrahydro-1H-indol-1-yl)acetic acid], the concentration for half-maximal inhibition (IC50) on CRTH2 [1] was greater than 500 nM; at CRTH2 [2], 100 to 500 nM.
In the same order, the values of `Cc1c(Cc2ccc(S(=O)(=O)N3CCOCC3)cc2)c2c(n1CC(=O)O)CC(C)(C)CC2=O` [Example I-45, 2-(2,6,6-trimethyl-3-(4-(morpholinosulfonyl)benzyl)-4-oxo-4,5,6,7-tetrahydro-1H-indol-1-yl)acetic acid] are greater than 500 nM and greater than 500 nM.
For `Cc1c(Cc2ccccc2S(=O)(=O)c2ccccc2)c2c(n1CC(=O)O)CC(C)(C)CC2=O` [Example I-48, 2-(2,6,6-trimethyl-4-oxo-3-(2-(phenylsulfonyl)benzyl)-4,5,6,7-tetrahydro-1H-indol-1-yl)acetic acid], in that order: less than 5 nM and less than 5 nM.
In the same order, the values of `Cc1c(Cc2ccccc2S(=O)(=O)N2CCOCC2)c2c(n1CC(=O)O)CCC(F)(F)C2` [Example I-39, 2-(5,5-difluoro-2-methyl-3-(2-(morpholinosulfonyl)benzyl)-4,5,6,7-tetrahydro-1H-indol-1-yl)acetic acid] are less than 5 nM and less than 5 nM.
In the case of `Cc1c(Cc2ccc(S(=O)(=O)N3CCCCC3)cc2)c2c(n1CC(=O)O)CCC(C)(C)C2` [Example I-13, 2-(2,5,5-Trimethyl-3-(4-(piperidin-1-ylsulfonyl)benzyl)-4,5,6,7-tetrahydro-1H-indol-1-yl)acetic acid], the figures for the IC50 at CRTH2 [1] and at CRTH2 [2] were 100 to 500 nM and less than 5 nM, respectively.
In the same order, the values of `Cc1c(Cc2ccccc2S(=O)(=O)N2CCOCC2)c2c(n1CC(=O)O)C(C)(C)CCC2` [Example I-36, 2-(2,7,7-trimethyl-3-(2-(morpholinosulfonyl)benzyl)-4,5,6,7-tetrahydro-1H-indol-1-yl)acetic acid] are 5 to 100 nM and less than 5 nM.
For `Cc1c(Sc2ccc(S(=O)(=O)N3CCCC3)cc2)c2c(n1CC(=O)O)CCC(C)(C)C2` [Example I-38, 2-(2,5,5-trimethyl-3-(4-(pyrrolidin-1-ylsulfonyl)phenylthio)-4,5,6,7-tetrahydro-1H-indol-1-yl)acetic acid], in that order: greater than 500 nM and less than 5 nM.
In the same order, the values of `Cc1c(Cc2ccc(S(=O)(=O)NC(C)C(C)(C)C)cc2)c2c(n1CC(=O)O)CCCC2` (stereo not drawn) [Example I-3, 2-(3-(4-(N-(3,3-Dimethylbutan-2-yl)sulfamoyl)benzyl)-2-methyl-4,5,6,7-tetrahydro-1H-indol-1-yl)acetic acid] are 5 to 100 nM and less than 5 nM.
For `Cc1c(Cc2ccccc2S(=O)(=O)N2CCCC2)c2c(n1CC(=O)O)CCC(C)(C)C2` [Example I-14, 2-(2,5,5-Trimethyl-3-(2-(pyrrolidin-1-ylsulfonyl)benzyl)-4,5,6,7-tetrahydro-1H-indol-1-yl)acetic acid], the IC50 was 5 to 100 nM against CRTH2 [1] and less than 5 nM against CRTH2 [2].
In the same order, the values of `Cc1c(Cc2ccc(S(=O)(=O)NC(C)C)cc2)c2c(n1CC(=O)O)CCCC2` [Example I-10, 2-(3-(4-(N-Isopropylsulfamoyl)benzyl)-2-methyl-4,5,6,7-tetrahydro-1H-indol-1-yl)acetic acid] are 100 to 500 nM and less than 5 nM.
Regarding `CCOC(=O)N1CCN(S(=O)(=O)c2ccc(Cc3c4c(n(CC(=O)O)c3C)CCC(C)(C)C4)cc2)CC1` [Example I-12, 2-(3-(4-(4-(Ethoxycarbonyl)piperazin-1-ylsulfonyl)benzyl)-2,5,5-trimethyl-4,5,6,7-tetrahydro-1H-indol-1-yl)acetic acid], the values for the IC50 against CRTH2 [1] and at CRTH2 [2] were 5 to 100 nM and less than 5 nM, respectively.
On to `CCOC(=O)Cn1c(C)c(Cc2ccccc2S(=O)(=O)c2ccccc2)c2c1CC(C)(C)CC2=O` [Example I-63, Ethyl 2-(2,6,6-trimethyl-4-oxo-3-(2-(phenylsulfonyl)benzyl)-4,5,6,7-tetrahydro-1H-indol-1-yl)acetate], for which the 50% inhibitory concentration (IC50) at CRTH2 [1] and on CRTH2 [2] was 100 to 500 nM in each case.
